Measured values: PubChem BioAssay (NCI)
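Assay format: 96-well plates, 48-hour exposure. TGI is the concentration that stops growth completely.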

Legend:
Experiment in all cases: NCI-60 cell line screen, 48 h
[1] = test system: CAKI-1 renal
[2] = test system: EKVX NSCLC
[3] = test system: HOP-92 NSCLC
[4] = test system: HS 578T breast
[5] = test system: HT29 colon
[6] = test system: IGROV1 ovarian
[7] = test system: K-562 leukemia
[8] = test system: KM12 colon
[9] = test system: MOLT-4 leukemia
[10] = test system: NCI-H522 lung
[11] = test system: OVCAR-3 ovarian
[12] = test system: OVCAR-8 ovarian
[13] = test system: PC-3 prostate
[14] = test system: RPMI-8226 leukemia
[15] = test system: SF-268 CNS
[16] = test system: SK-MEL-2 melanoma
[17] = test system: SNB-19 CNS
[18] = test system: T-47D breast
[19] = test system: TK-10 renal
[20] = test system: HCT-116 colon

| SMILES | TGI [1] [µM] | TGI [2] [µM] | TGI [3] [µM] | TGI [4] [µM] | TGI [5] [µM] | TGI [6] [µM] | TGI [7] [µM] | TGI [8] [µM] | TGI [9] [µM] | TGI [10] [µM] | TGI [11] [µM] | TGI [12] [µM] | TGI [13] [µM] | TGI [14] [µM] | TGI [15] [µM] | TGI [16] [µM] | TGI [17] [µM] | TGI [18] [µM] | TGI [19] [µM] | TGI [20] [µM] |
| --- | --- | --- | --- | --- | --- | --- | --- | --- | --- | --- | --- | --- | --- | --- | --- | --- | --- | --- | --- | --- |
| Cc1ccc(C2SCC(=O)N2c2ccc(-c3ccc(-n4c(-c5ccccc5)nc5ccccc5c4=O)cc3)cc2)cc1 (stereo not given) | > 100 | > 100 | > 100 | > 100 | > 100 | > 100 | > 100 | > 100 | > 100 | > 100 | > 100 | > 100 | > 100 | > 100 | > 100 | > 100 | > 100 | > 100 | > 100 | – |
| Cn1cc(S(=O)(=O)NC(=O)Nc2ccc(Cl)cc2)c2ccccc21 | 81 | > 100 | > 100 | > 100 | > 100 | > 100 | > 100 | > 100 | > 100 | 69.3 | > 100 | > 100 | > 100 | > 100 | > 100 | > 100 | > 100 | > 100 | 55.2 | > 100 |
| COc1cccc(C2ON=C(c3ccccc3)N2C23CC4CC(CC(C4)C2)C3)c1 (stereo not given) | > 10 | > 10 | > 10 | > 10 | > 10 | > 10 | > 10 | > 10 | > 10 | > 10 | > 10 | > 10 | > 10 | > 10 | > 10 | > 10 | > 10 | > 10 | > 10 | > 10 |
| C=CCc1cc(C=C(C#N)C#N)cc(OC)c1O | > 100 | > 100 | > 100 | > 100 | > 100 | > 100 | > 100 | > 100 | > 100 | > 100 | > 100 | > 100 | > 100 | > 100 | – | > 100 | > 100 | > 100 | > 100 | > 100 |
| Cc1ccc(Nc2[nH]c(=O)[nH]c(=O)c2C)cc1Cl | > 100 | > 100 | > 100 | > 100 | > 100 | > 100 | > 100 | > 100 | – | > 100 | > 100 | > 100 | > 100 | > 100 | > 100 | > 100 | > 100 | > 100 | > 100 | > 100 |
| COc1cccc(CCNc2c(C#N)c3nc4ccccc4n3c3ccccc23)c1 | > 100 | > 100 | > 100 | > 27.2 | > 100 | > 100 | > 100 | > 44.5 | > 100 | 0.397 | > 100 | > 100 | > 100 | > 100 | > 100 | > 100 | > 86 | > 52.6 | > 100 | > 61.5 |
| CC(C)COC(=O)OC(=O)c1ccc(N(C)Cc2cnc3nc(N)nc(N)c3n2)cc1 | > 100 | > 100 | > 100 | > 100 | > 100 | > 100 | > 100 | > 100 | > 100 | > 100 | > 100 | > 100 | > 100 | > 100 | > 100 | > 100 | > 100 | > 100 | > 100 | > 100 |
| Cc1ccc(S(=O)(=O)N2c3ccccc3[C@H]3CCC=C[C@H]32)cc1 | > 100 | > 92.6 | 35.4 | 86.3 | 19.2 | > 100 | > 81.3 | 45.7 | > 73.8 | 6.35 | 28.4 | > 88.5 | > 100 | 43 | > 76.1 | 39.2 | > 100 | > 100 | > 100 | 19.6 |
| O=C(OC[C@H]1C[C@H]2C(=O)CCC[C@H]2O1)c1ccccc1 | > 100 | > 100 | > 100 | > 100 | > 100 | > 100 | > 100 | > 100 | > 100 | > 100 | > 100 | > 100 | > 100 | > 100 | > 100 | > 100 | > 100 | > 100 | > 100 | > 100 |
| CCCCc1ccc(-n2sc3ncc([N+](=O)[O-])cc3c2=O)cc1 | 26.2 | 29.8 | – | 30.8 | 26.7 | 28.1 | – | 25.4 | 53.7 | 9.36 | 46.1 | 61 | 18.7 | 32.5 | 37.1 | 7.43 | 48.6 | 25.9 | 61.9 | 21 |
| S=C(N/N=C/c1ccccn1)Nc1ccc(Cl)cc1 | 30.5 | > 100 | > 57.6 | > 67.2 | > 100 | 25.6 | – | > 100 | > 100 | 0.18 | > 100 | > 42.8 | > 100 | > 26.4 | > 45.7 | > 100 | > 39 | > 100 | > 96 | > 88.5 |
| O=C1CCCC(=O)N1n1c(Cc2ccccc2)n[nH]c1=O | > 100 | > 100 | > 100 | > 100 | > 100 | > 100 | > 100 | > 100 | > 100 | > 100 | > 100 | > 100 | > 100 | > 100 | > 100 | > 100 | – | > 100 | > 100 | > 100 |
| CCOC(=O)C1C(c2ccc(O)c(OC)c2)c2c([nH][nH]c2=O)CC1(C)O (stereo not given) | > 100 | > 100 | > 100 | > 100 | > 100 | > 100 | – | > 100 | > 100 | > 100 | > 100 | > 100 | > 100 | > 100 | > 100 | > 100 | > 100 | > 100 | > 100 | > 100 |
| COc1cccc2c3ccccc3c3nc[nH]c3c12 | > 100 | > 100 | 61.9 | 3.75 | > 100 | > 100 | 28.4 | > 100 | 28.4 | > 70.1 | > 100 | > 100 | > 100 | 44.5 | > 100 | > 100 | > 100 | > 100 | > 75.4 | > 100 |
| O=C(O)CC1NC(/C(=C/c2ccccc2O)NC(=O)c2ccccc2)OC1=O (stereo not given) | > 100 | > 100 | > 100 | > 100 | > 100 | > 70.9 | > 100 | > 100 | > 100 | > 100 | > 61.2 | > 87.8 | > 100 | > 100 | > 45.1 | > 100 | 49.5 | > 100 | > 100 | > 100 |
| C[N+](C)(C)/N=C/c1ccc(O)c(O)c1 | > 100 | > 100 | > 100 | > 100 | > 100 | > 100 | > 100 | > 100 | > 100 | > 100 | > 100 | > 100 | > 100 | > 100 | > 100 | > 100 | > 100 | > 100 | > 100 | > 100 |
| NC(=O)C(=CNC(=S)Nc1ccc(Cl)c(Cl)c1)C(N)=O | > 100 | > 100 | > 100 | > 88.9 | > 100 | > 100 | > 100 | > 100 | > 100 | 72.3 | > 100 | > 100 | > 100 | > 100 | > 100 | > 100 | > 100 | > 72.9 | > 100 | > 100 |
| CC(=O)OC12c3ccccc3-c3ccccc3C1C(C(=O)O)C2(Cl)C(=O)O (stereo not given) | > 10 | > 10 | > 10 | > 10 | > 10 | > 10 | > 10 | > 10 | > 10 | > 10 | > 10 | > 10 | > 10 | > 10 | > 10 | > 10 | > 10 | > 10 | > 10 | – |
| COC(CC1(/C=C/O[Si](C(C)C)(C(C)C)C(C)C)C(=O)N(COCC[Si](C)(C)C)c2ccccc21)OC (stereo not given) | > 100 | – | 60 | > 100 | > 100 | 59.9 | > 100 | > 100 | > 100 | 23.6 | 38.3 | > 100 | 85.2 | > 100 | 38.4 | 26.8 | > 100 | > 100 | > 100 | 71.6 |
| O=C(NNCC(F)(F)F)c1ccncc1 | > 100 | > 100 | > 100 | > 100 | > 100 | > 100 | > 100 | > 100 | > 100 | > 100 | > 100 | > 100 | > 100 | > 100 | > 100 | > 100 | > 100 | > 100 | > 100 | > 100 |
| COC(=O)c1ccc(NCc2c(O)ccc(O)c2Br)cc1Cl | 29.9 | 28.5 | 28.4 | 95.4 | 40.2 | 28.7 | – | 31 | 40.9 | 3.51 | 20.9 | 30 | 44 | > 100 | 41.2 | 40.8 | > 100 | 43.3 | – | 33.3 |
| COc1ccc(/C=C/C(=N/NC(=O)N/N=C(/C=C/c2ccc(OC)cc2)C(C)(C)CN2CCCCC2)C(C)(C)CN2CCCCC2)cc1 | 4.33 | > 10 | 3.08 | 4.28 | 3.11 | 5.77 | 1.89 | 3.27 | 4.18 | 3.59 | 3.81 | 3.4 | 6.62 | 4.23 | – | 3.1 | 6.4 | 4.1 | 3.67 | 2.6 |
| CN1C(=O)C(C(N)=O)C2CC1(C)Oc1ccccc12 (stereo not given) | > 100 | > 100 | > 100 | > 100 | > 100 | > 100 | > 100 | > 100 | > 100 | > 100 | > 100 | > 100 | > 100 | > 100 | > 100 | > 100 | > 100 | > 100 | – | > 100 |
| CC(=O)Oc1c2c(c(CC=C(C)C)c3c1C(=O)C1=C[C@@H]4CC5C(C)(C)OC(C/C=C(/C)C(=O)O)(C4=O)[C@@]15O3)OC(C)(CCC=C(C)C)C=C2 (stereo not given in full) | 0.409 | 0.839 | 1.05 | 1.44 | 0.598 | 0.294 | – | 0.897 | 32 | 0.281 | 0.922 | 0.747 | 1.24 | 0.538 | 1.56 | 0.982 | 1.38 | 0.439 | 0.585 | 0.316 |
